Test results: patent US20050118310A1, “Formulations of compounds derived from natural sources and their use with irradiation for food preservation” (priority 2001, published 2005)
Marks after values point to notes of the source that are not given here.

Tests used:
S. typhi [1] = test: Shelf life study, S. typhi in ground beef irradiated at 0.85 kGy; format: cell-based, Salmonella typhi; conditions: stored at 4° C., thymol 1.6%
Procedure: (§1) Irradiation treatments of ground beef samples for D10 and shelf life determination were performed using UC-15B irradiator (MDS-Nordion International Inc., Kanata, ON, Canada) equipped with a ^60 Co source at a dose rate of 14.42 kGy/h). Irradiation doses used for D10 determination were ranged from 0.25 to 0.55 kGy for E. coli, from 0.50 to 2.0 kGy for S. typhi, and from 0.5 to 2.5 kGy for the mixture of indigenous microorganisms of ground beef. The shelf life study was performed on samples irradiated at 0.30, 0.85, and 1.75 kGy for E. coli, S. typhi, and the mixture of indigenous microorganisms of ground beef, respectively. For each active compound concentration tested, a group of non-irradiated samples sened as a control. For D10 determination, samples were analysed immediately after irradiation. For shelf life studies, samples were stored at 4° C. and analysed periodically.
(§2) Microbial analysis was performed by homogenising the samples for 2 mn in sterile peptone water (0.1%) using a Lab-blender 400 stomacher (Laboratory Equipment, London, UK). From this mixture, serial dilutions were prepared and appropriate ones were pour-plated in tryptic soy agar (TSA) (Difco, Laboratories, Detroit, Mich., USA) and incubated at 35° C., 24 hours for the numeration of E. coli and S. typhi. For the ground beef broth, the incubation was performed on Plate Count Agar (PCA; Difco) at 35° C. for 48 h for the numeration mesophilic bacteria, and at 7° C. for 10 days for the numeration of psychrotrophic bacteria. Enterobacteriaceae were numerated on Violet Red Bile Glucose Agar (VRBGA; Difco) 35° C. for 48 hours.
(§3) A shelf life study was undertaken to evaluate the radiation sensitivity during refrigerated storage conditions. Ground beef samples contaminated with E. coli, S. typhi, or a mixture of indigenous micro-organisms were irradiated in presence or absence of selected active compounds. Due to the differences in sensitivity between the micro-organisms under study, the following irradiation doses were used: 0.30 kGy for E. coli, 0.85 kGy for S. typhi, and 1.75 kGy for the mixture of indigenous bacteria. The irradiation doses selected corresponded to the irradiation dose needed to produce 3 log CFU reduction in bacterial population in the control sample (without active compounds).

Salmonella typhi = test: Example 4 irradiation sensitivity (D10) of S. typhi in ground beef; format: cell-based; conditions: carvacrol 1.15%, thymol 1.60%
Procedure: as §1
(§4) Microbial analysis was performed by homogenising the samples for 2 mn in sterile peptone water (0.1%) using a Lab-blender 400 stomacher (Laboratory Equipment, London, UK). […]
(§5) The kinetics of bacteria destruction by irradiation with or without the food additives was evaluated by linear regression. Bacterial counts (log CFU/ml) were plotted against irradiation doses or active compounds concentration and D10 values were calculated using the PROC REG procedure of SAS (SAS Institute, Cary, N.C., USA). […]

E. coli = test: Irradiation sensitivity (D10) of E. coli in ground beef; format: cell-based, Escherichia coli (ATCC 25922)
S. typhi [2] = test: Irradiation sensitivity (D10) of S. typhi in ground beef; format: cell-based, Salmonella typhi (ATCC 19430)
psychrotrophic bacteria = test: Shelf life study, indigenous micro-organisms of ground beef, psychrotrophic count; format: cell-based
Procedure: as §1, §2
A shelf life study was undertaken to evaluate the radiation sensitivity during refrigerated storage conditions. Ground beef samples contaminated with E. coli, S. typhi, or a mixture of indigenous micro-organisms were irradiated in presence or absence of selected active compounds. […]

[3] = system: mixture of indigenous microorganisms of ground beef (mesophilic and psychrotrophic bacteria); test: Shelf life study, indigenous micro-organisms of ground beef, statements for mesophilic and psychrotrophic bacteria together; format: cell-based; conditions: for reduction of bacterial counts by irradiation: control 3 log CFU; for storage time before a bacterial count of approximately 6 log is reached: meat treated with formulation in conjunction with irradiation, about 8 days with irradiation alone
Procedure: as §1, §2, §3
(§6) The shelf life study in ground beef contaminated with the mixture of indigenous microorganisms of ground beef was conducted by evaluating mesophilic, psychrotrophic and total Enterobacteriaceae in the samples. […] Irradiation reduced the bacterial counts by various degrees depending on the type of active compound used: 3 log CFU reduction for control (without active compounds), 3.5 and more than 5 log CFU reduction for samples containing thymol and trans-cinnamaldehyde, respectively. […] Bacterial counts in both sarnples remained below detectable levels even after 44 days. […] A similar effect was also observed during storage for irradiated samples containing thymol as compared to samples without thymol. Between day 5 and day 15, a difference of 2 to 3 log CFU was observed between the two groups of samples.

[4] = system: Mixture of indigenous bacteria; test: Example 4 irradiation sensitivity (D10) of indigenous bacteria of ground beef; format: cell-based; conditions: thymol […], trans-cinnamaldehyde […]
Procedure: as §1, §4, §5

mesophilic bacteria = test: Shelf life study, indigenous micro-organisms of ground beef, mesophilic count; format: cell-based; conditions: for shelf life period: 4° C., thymol […]
Procedure: as §1, §2, §3, §6

[5] = ground beef, air, 4° C., carvacrol 1.0% alone or with ascorbic acid 0.5% and/or tetrasodium pyrophosphate 0.1%
[6] = ground beef irradiated at 1.75 kGy, stored at 4° C., trans-cinnamaldehyde […]
[7] = trans-cinnamaldehyde alone (no irradiation), stored at 4° C.
[8] = ground beef irradiated at 1.75 kGy, thymol […], trans-cinnamaldehyde […]
[9] = ground beef packed under MAP (60% O2-30% CO2-10% N2), 4° C., trans-cinnamaldehyde […]
[10] = ground beef packed under air, 4° C., trans-cinnamaldehyde […]
[11] = ground beef under MAP, trans-cinnamaldehyde […] vs control under the same atmosphere
[12] = ground beef under air, trans-cinnamaldehyde […] vs control under the same atmosphere
[13] = ground beef, MAP vs air, both with trans-cinnamaldehyde […]
[14] = under MAP, trans-cinnamaldehyde […]
[15] = under air, trans-cinnamaldehyde […]

## Cc1ccc(C(C)C)cc1O [Carvacrol, carvacrol]
S. typhi [1]; carvacrol 1.15%
  days of storage after which complete inhibition was produced: 22 days
Salmonella typhi
  D10(kGy): 0.316 kGy
E. coli; [5]
  D10(kGy): 0.057 ± 0.0015^a kGy
  irradiation dose necessary to completely eliminate E. coli: 0.3 kGy
E. coli; ground beef, air, 4° C., carvacrol 1.0% alone or with tetrasodium pyrophosphate 0.1%
  factor by which the irradiation dose necessary to completely eliminate E. coli is lower than in the absence of active compounds: 2.3
E. coli; vs control, negative = protective effect, ground beef, air, 4° C., carvacrol 1.0% alone or with ascorbic acid 0.5% and/or tetrasodium pyrophosphate 0.1%
  Increase in Sensitivity: 55.5%
S. typhi [2]; [5]
  D10(kGy): 0.235 ± 0.0158^a kGy
  irradiation dose for complete elimination of S. typhi: 1.25 kGy
S. typhi [2]; vs control (0.519 kGy), ground beef, air, 4° C., carvacrol 1.0% alone or with ascorbic acid 0.5% and/or tetrasodium pyrophosphate 0.1%
  Increase in Sensitivity: 54.7%

## O=C/C=C/c1ccccc1 [Trans-cinnamaldehyde, trans-cinnamaldehyde]
Psychrotrophic bacteria; [6]
  days after which complete inhibition of bacterial growth resulted: 1 days
Psychrotrophic bacteria; [7]
  day of storage at which complete inhibition occurred: 36 days
[3]; [6]
  days for which bacterial counts remained below detectable levels: ≥ 44 days
[3]; [8]
  reduction of bacterial counts by irradiation: more than 5 log CFU
[3]
  storage time before a bacterial count of approximately 6 log is reached: more than 35 days
[4]
  D10(kGy): 0.494 kGy
Mesophilic bacteria; [6]
  days after which complete inhibition of bacterial growth resulted: 3 days
Mesophilic bacteria; [7]
  bacteria counts at day 44: ~1 log CFU/g
Mesophilic bacteria; without irradiation, stored at 4° C., trans-cinnamaldehyde […]
  bacterial population reached after 36 days of storage: 1 log CFU
E. coli; [9]
  D10(kGy): 0.046 ± 0.001^b* kGy
E. coli; [10]
  D10(kGy): 0.115 ± 0.004^a* kGy
E. coli; [11]
  Increase in Sensitivity: 46.5%
E. coli; [12]
  Increase in Sensitivity: 8.7%
E. coli; [13]
  increase in irradiation sensitivity by modification of the packaging atmosphere: 60%
E. coli; [14]
  irradiation dose needed to completely eliminate E. coli from the ground beef: 0.25 kGy
E. coli; [15]
  irradiation dose needed to completely eliminate E. coli from the ground beef: 0.6 kGy
  irradiation dose to completely eliminate E. coli from ground beef: 0.2 kGy
S. typhi [2]; [9]
  D10(kGy): 0.110 ± 0.002^b* kGy
S. typhi [2]; [10]
  D10(kGy): 0.356 ± 0.005^a* kGy
S. typhi [2]; [11]
  Increase in Sensitivity: 50.2%
S. typhi [2]; [12]
  Increase in Sensitivity: 32.3%
S. typhi [2]; [13]
  increase in irradiation sensitivity by modification of the packaging atmosphere: 69.1%
S. typhi [2]; [14]
  irradiation dose required to completely eliminate S. typhi from the ground beef: 0.6 kGy
S. typhi [2]; under air, trans-cinnamaldehyde 0.89%
  irradiation dose required to completely eliminate S. typhi from ground beef: 0.75 kGy
S. typhi [2]; [15]
  irradiation dose required to completely eliminate S. typhi from the ground beef: around 2 kGy

## Cc1ccc(C(C)C)c(O)c1 [Thymol, thymol]
S. typhi [1]; carvacrol 1.15%
  days of storage after which complete inhibition was produced: 28 days
S. typhi [1]; carvacrol 1.15%, lower than control
  bacterial counts compared with the irradiated control after 15 days of storage: sinilar in both cases
S. typhi [1]
  difference between samples irradiated in presence and absence of compound at day 7: 3 log CFU
Psychrotrophic bacteria; non-irradiated samples, 4° C., thymol […], control 2 days
  shelf life period: 9 days
[3]; ground beef irradiated at 1.75 kGy, stored at 4° C., thymol […]
  complete inhibition during storage: no complete inhibition
[3]; ground beef irradiated at 1.75 kGy, stored at 4° C., thymol […], 10^7 without thymol
  level of bacteria observed for irradiated samples during storage: 10^4 CFU/g
[3]; [8]
  reduction of bacterial counts by irradiation: 3.5 log CFU
[3]
  storage time before a bacterial count of approximately 6 log is reached: 15 days
[4]
  D10(kGy): 0.779 kGy
Mesophilic bacteria; irradiated samples (1.75 kGy), control 8 days
  shelf life period: 23 days
Mesophilic bacteria; non-irradiated samples, control 2 days
  shelf life period: 8 days
Salmonella typhi
  D10(kGy): 0.382 kGy
